According to patent publication US20100125059A1, “1-BIARYLAZETIDINONE DERIVATIVE” (Teijin Pharma Limited, priority 2007, published 2010):
Read-outs that look alike come from different tables or passages of the source.

Legend:
Caco-2 cells = test: Cholesterol absorption inhibition assay (in vitro), [14C] cholesterol mixed micelles; format: cell-based; settings: Homo sapiens, 24 hours, read-out: cholesterol absorption inhibitory activity; for inhibition at 10 µM: concentration of 10 μM; for inhibition at 12.5 µM: concentration of 12.5 μM
Procedure: This assay measures cholesterol absorption inhibitory activity by adding mixed micelles containing [^14C] cholesterol to cells and measuring cholesterol taken in the cells as oleic acid cholesteryl ester. The assay is conducted after Caco-2 cells are seeded on multi-well plates and cultured (culture medium: DMEM containing 10% fetal bovine serum, 1% non-essential amino acids, 1% penicillin, and 1% streptomycin) for 2 weeks. To each well, the micelle solution (in an amount required to provide the following final concentrations: 600 μM of sodium oleate, 50 μM of phosphatidyl choline, 5 mM of sodium taurocholate, 2.5 μM of cholesterol, and 2.5 μM of [^14C] cholesterol) and a test compound solution (in an amount required to provide the final concentration of 0.5 to 25 μM) or a solvent as a control are added, and incubation is started at 37° C. 24 hours later, the culture medium is removed, and the lipid component is extracted with hexane/2-propanol (3:2, v/v) and applied onto thin-layer silica gel plates. After drying, each plate is eluted with a mixture of hexane, diethyl ether, and acetic acid in a ratio of 83:16:1. The plates are photoexposed on imaging plates and analyzed using BAS-2500 (FUJIFILM). The amounts of light exposure of the areas corresponding to the cholesteryl ester are calculated. Background is measured using a blank space of the plate. Inhibition rates are calculated using values obtained by subtracting the background values from both values of the control and the test sample, respectively, in accordance with the following equation. A test value is calculated as a percentage (%) with respect to the control.
In the Equation 1, A is the control group, BG is a background, and B is the test compound.
The following results were obtained from the measurement by this method on cholesterol absorption inhibitory activity of the compounds of the present invention. The following results were obtained by the evaluation using concentrations of 10 μM and/or 12.5 μM.

[1] = tested on: hamsters fed a high cholesterol diet; test: Measurement of lipid lowering effect in hamsters fed a high cholesterol diet; format: in vivo, Male Golden Syrian hamsters; settings: for inhibition in vivo at 0.01 mg/kg / inhibition in vivo at 0.1 mg/kg: Mesocricetus auratus, po, 168 h, gavage once daily, 7 days; for a serum TC lowering effect at a dose of 0.1 mg/kg: Table 22, suppression rate of an increase in serum TC concentration
In short: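 Male Golden Syrian hamsters (6/group) on 0.5% cholesterol diet, dosed by gavage once daily in corn oil at 0.01 to 10 mg/kg; serum and liver sampled 4 h after last dose. TC, TG and LDL-C measured enzymatically; effects expressed as % suppression versus control and normal-diet groups.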

[2] = read-out: serum TC lowering effect (suppression rate of an increase in serum TC concentration)
[3] = read-out: serum TG lowering effect (serum TG lowering rate)
[4] = read-out: serum LDL-C lowering effect (suppression rate of an increase in serum LDL-C concentration)
[5] = read-out: liver TC lowering effect (suppression rate of an increase in liver TC concentration)

Compound | inhibition at 10 µM (Caco-2 cells) | inhibition at 12.5 µM (Caco-2 cells) | inhibition in vivo at 0.01 mg/kg [1, 2] | inhibition in vivo at 0.1 mg/kg [1, 3] | inhibition in vivo at 0.01 mg/kg [1, 4] | inhibition in vivo at 0.1 mg/kg [1, 4] | inhibition in vivo at 0.1 mg/kg [1, 2] | a serum TC lowering effect at a dose of 0.1 mg/kg [1] | inhibition in vivo at 0.01 mg/kg [1, 5] | inhibition in vivo at 0.1 mg/kg [1, 5]
O=C1[C@H](SC[C@H](O)c2ccc3occc3c2)[C@@H](c2ccc(O)cc2)N1c1ccc(-c2cccnc2)cc1 [Example 31, (3R,4R)-3-((2R)-2-benzo[b]furan-5-yl-2-hydroxyethylthio)-4-(4-hydroxyphenyl)-1-[4-(pyridin-3-yl)phenyl]azetidin-2-one] | ≥ 50% | ≥ 60% | ≥ 30% | ≥ 20% |  |  |  |  |  | 
O=C1[C@H](SC[C@H](O)c2ccc(Cl)cc2)[C@@H](c2ccc(O)cc2)N1c1ccc(-c2cccnc2)cc1 [Example 32, (3R,4R)-3-[(2R)-2-(4-chlorophenyl)-2-hydroxyethylthio]-4-(4-hydroxyphenyl)-1-[4-(pyridin-3-yl)phenyl]azetidin-2-one] | ≥ 50% | ≥ 60% |  | ≥ 20% | ≥ 30% |  |  |  |  | 
O=C1[C@H](SC[C@H](O)c2ccc(F)cc2)[C@@H](c2ccc(O)cc2)N1c1ccc(-c2ncc(F)cc2F)cc1 [Example 34, (3R,4R)-3-[(2R)-2-(4-fluorophenyl)-2-hydroxyethylthio]-1-[4-(3,5-difluoropyridin-2-yl)phenyl]-4-(4-hydroxyphenyl)azetidin-2-one] | ≥ 50% |  |  | ≥ 20% |  |  |  |  |  | 
Cc1cc(O)ccc1[C@@H]1[C@@H](SC[C@H](O)c2ccc(F)cc2)C(=O)N1c1ccc(-c2cccnc2)cc1 [Example 38, (3R,4R)-3-[(2R)-2-(4-fluorophenyl)-2-hydroxyethylthio]-4-(4-hydroxy-2-methylphenyl)-1-[4-(pyridin-3-yl)phenyl]azetidin-2-one] | ≥ 50% |  |  |  | ≥ 30% | ≥ 50% | ≥ 50% |  |  | 
Cc1ccc([C@@H](O)CS[C@H]2C(=O)N(c3ccc(-c4cccnc4)cc3)[C@@H]2c2ccc(O)cc2)cc1 [Example 45, (3R,4R)-3-[(2R)-2-hydroxy-2-(4-methylphenyl)ethylthio]-4-(4-hydroxyphenyl)-1-[4-(pyridin-3-yl)phenyl]azetidin-2-one] | ≥ 50% | ≥ 60% |  |  |  | ≥ 50% | ≥ 50% |  |  | 
CC(=O)c1cncc(-c2ccc(N3C(=O)[C@H](SC[C@H](O)c4ccc(F)cc4)[C@H]3c3ccc(O)cc3)cc2)c1 [Example 48, (3R,4R)-3-[(2R)-2-(4-fluorophenyl)-2-hydroxyethylthio]-1-[4-(5-acetylpyridin-3-yl)phenyl]-4-(4-hydroxyphenyl)azetidin-2-one] | ≥ 50% | ≥ 60% |  | ≥ 20% |  |  |  |  |  | 
COc1cncc(-c2ccc(N3C(=O)[C@H](SC[C@H](O)c4ccc(F)cc4)[C@H]3c3ccc(O)cc3)cc2)c1 [Example 50, (3R,4R)-3-[(2R)-2-(4-fluorophenyl)-2-hydroxyethylthio]-4-(4-hydroxyphenyl)-1-[4-(5-methoxypyridin-3-yl)phenyl]azetidin-2-one] | ≥ 50% |  |  | ≥ 20% |  |  | ≥ 50% |  |  | 
O=C1[C@H](SC[C@H](O)c2ccc(F)cc2)[C@@H](c2ccc(O)cc2)N1c1ccc(-c2cncc(C(F)(F)F)c2)cc1 [Example 51, (3R,4R)-3-[(2R)-2-(4-fluorophenyl)-2-hydroxyethylthio]-4-(4-hydroxyphenyl)-1-[4-(5-trifluoromethylpyridin-3-yl)phenyl]azetidin-2-one] | ≥ 50% |  | ≥ 30% | ≥ 20% |  |  |  | 104% |  | 
COc1cc(N2C(=O)[C@H](SC[C@H](O)c3ccc(F)cc3)[C@H]2c2ccc(O)cc2)ccc1-c1cccnc1 [Example 52, (3R,4R)-3-[(2R)-2-(4-fluorophenyl)-2-hydroxyethylthio]-4-(4-hydroxyphenyl)-1-[3-methoxy-4-(pyridin-3-yl)phenyl]azetidin-2-one] | ≥ 50% |  |  | ≥ 20% |  |  |  |  |  | 
O=C1[C@H](SC[C@H](O)c2ccc(F)cc2)[C@@H](c2ccc(O)cc2)N1c1ccc(-c2cncc(F)c2)cc1 [Example 55, (3R,4R)-3-[(2R)-2-(4-fluorophenyl)-2-hydroxyethylthio]-1-[4-(5-fluoropyridin-3-yl)phenyl]-4-(4-hydroxyphenyl)azetidin-2-one] | ≥ 50% |  | ≥ 30% | ≥ 20% | ≥ 30% |  |  | 130% | ≥ 30% | 
O=C1[C@H](SC[C@H](O)c2ccc(F)cc2)[C@@H](c2ccc(O)cc2)N1c1ccc(-c2cncc(Cl)c2)cc1 [Example 56, (3R,4R)-3-[(2R)-2-(4-fluorophenyl)-2-hydroxyethylthio]-1-[4-(5-chloropyridin-3-yl)phenyl]-4-(4-hydroxyphenyl)azetidin-2-one] | ≥ 50% |  | ≥ 30% |  | ≥ 30% |  |  |  | ≥ 30% | ≥ 50%
N#Cc1cncc(-c2ccc(N3C(=O)[C@H](SC[C@H](O)c4ccc(Cl)cc4)[C@H]3c3ccc(O)cc3)cc2)c1 [Example 58, 5-(4-{(3R,4R)-3-[(2R)-2-(4-chlorophenyl)-2-hydroxyethylthio]-4-(4-hydroxyphenyl)-2-oxoazetidinyl}phenyl)pyridine-3-carbonitrile] | ≥ 50% | ≥ 60% |  | ≥ 20% | ≥ 30% |  |  |  | ≥ 30% | 
O=C1[C@H](SC[C@H](O)c2ccc(F)cc2)[C@@H](c2ccc(O)cc2Cl)N1c1ccc(-c2cccnc2)cc1 [Example 59, (3R,4R)-3-[(2R)-2-(4-fluorophenyl)-2-hydroxyethylthio]-4-(2-chloro-4-hydroxyphenyl)-1-[4-(pyridin-3-yl)phenyl]azetidin-2-one] |  | ≥ 60% | ≥ 30% | ≥ 20% |  |  |  |  |  | ≥ 50%
COc1ccncc1-c1ccc(N2C(=O)[C@H](SC[C@H](O)c3ccc(Cl)cc3)[C@H]2c2ccc(O)cc2)cc1 [Example 61, (3R,4R)-3-[(2R)-2-(4-chlorophenyl)-2-hydroxyethylthio]-4-(4-hydroxyphenyl)-1-[4-(4-methoxypyridin-3-yl)phenyl]azetidin-2-one] |  | ≥ 60% |  |  |  | ≥ 50% |  |  |  | 
O=C1[C@H](SC[C@H](O)c2ccc(Cl)c(F)c2)[C@@H](c2ccc(O)cc2)N1c1ccc(-c2cccnc2)cc1 [Example 81, (3R,4R)-3-[(2R)-2-(4-chloro-3-fluorophenyl)-2-hydroxyethylthio]-4-(4-hydroxyphenyl)-1-[4-(pyridin-3-yl)phenyl]azetidin-2-one] |  | ≥ 60% |  |  |  | ≥ 50% | ≥ 50% |  |  | 
O=C1[C@H](SC[C@H](O)c2ccc3sccc3c2)[C@@H](c2ccc(O)cc2)N1c1ccc(-c2cccnc2)cc1 [Example 83, (3R,4R)-3-((2R)-2-benzo[b]thiophen-5-yl-2-hydroxyethylthio)-4-(4-hydroxyphenyl)-1-[4-(pyridin-3-yl)phenyl]azetidin-2-one] |  | ≥ 60% |  |  |  | ≥ 50% | ≥ 50% |  |  | 
Cc1cncc(-c2ccc(N3C(=O)[C@H](SC[C@H](O)c4ccc(Cl)cc4)[C@H]3c3ccc(O)cc3)cc2)c1 [Example 85, (3R,4R)-3-[(2R)-2-(4-chlorophenyl)-2-hydroxyethylthio]-4-(4-hydroxyphenyl)-1-[4-(5-methylpyridin-3-yl)phenyl]azetidin-2-one] |  | ≥ 60% | ≥ 30% |  | ≥ 30% |  |  |  |  | 
